The values that follow come from patent publication US20240294551A1 (AMGEN INC., priority 2022, published 2024).

The test system of test [1] is Phosphorylation of ERK1/2 in AsPC-1 cells. Nature of the test: Phospho-ERK1/2 MSD Assay. The test is classed as cell-based, human. The note with it: read-out: 2 h p-ERK (AsPC-1 cells), IC50. Put shortly: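 Read-out: MSD electrochemiluminescent detection of phosphorylated ERK1/2 in whole-cell lysates, fitted to a 4-parameter logistic curve for IC50. Prior to lysis, AsPC-1 cells (25,000 per well) received a 2 h compound dose-response at 37 °C.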

Another test deals with AsPC-1 cells. Nature of the test: AsPC-1 CTG Assay (CellTiter-Glo cell viability). The test is classed as cell-based, human. The note with it: AsPC-1, 72 h, first value of the cell, read-out: G12D/C/V Cell Proliferation CTG (72 h) AsPC-1. Put shortly:
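Human pancreatic AsPC-1 or colon SW620 cells in RPMI 1640 with 10% FBS, seeded overnight, then exposed to serially diluted compound for 72 h at 37 °C. CellTiter-Glo luminescence normalized to DMSO control; IC50 from a 4-parameter logistic model.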
On the technique in general: Cellular ATP, detected with luciferase, serves as a proxy for viable cell number.

Test [2] deals with GDP-bound KRAS protein (aa 1-169), containing both G12D and C118A amino acid substitutions (Homo sapiens (Human), UniProt P01116, C118A/G12D). As to the kind of experiment: KRAS G12D Coupled Nucleotide Exchange Assay. The test is classed as biochemical. Conditions: read-out: KRAS G12D Coupled Exchange IC50.
GDP-bound KRAS protein (aa 1-169), containing both G12D and C118A amino acid substitutions, sequence (P01116 other isoform, or with tags, fused parts or gaps G12D/C118A): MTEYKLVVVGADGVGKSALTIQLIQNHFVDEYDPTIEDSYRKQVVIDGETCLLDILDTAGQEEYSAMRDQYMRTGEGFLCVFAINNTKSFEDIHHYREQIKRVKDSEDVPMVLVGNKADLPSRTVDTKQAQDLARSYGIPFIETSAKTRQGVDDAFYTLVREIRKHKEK
Test [3] addresses His-tagged KRAS G12D protein (Homo sapiens (Human), UniProt P01116, G12D). Nature of the test: KRAS G12D TR-FRET Assay. The test is classed as binding. Conditions: read-out: KRAS G12D Binding IC50. Put shortly:
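His-tagged KRAS G12D (diluted to 20 nM in pH 7.4 HEPES buffer with 10 mM MgCl2 and 10 μM GDP) was preincubated with titrated compound for 30 min at room temperature. Biotinylated KRPep-2d peptide (diluted to 20 nM) was then added for 1 h, and displacement was monitored by TR-FRET.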
For orientation: TR-FRET usually uses a lanthanide donor and a delayed reading to cut background.

pIC50: −log10 of the molar value. Structures can show the parent of a compound that is named as a salt. Where two headings read alike, the source gives them in different places.

His-tagged KRAS G12D protein, sequence (P01116 other isoform, or with tags, fused parts or gaps G12D): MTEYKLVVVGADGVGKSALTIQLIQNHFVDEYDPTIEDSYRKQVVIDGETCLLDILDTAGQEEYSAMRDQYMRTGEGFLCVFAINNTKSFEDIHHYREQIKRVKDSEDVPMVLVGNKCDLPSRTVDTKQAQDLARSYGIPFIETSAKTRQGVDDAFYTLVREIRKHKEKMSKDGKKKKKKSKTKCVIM

On to `O=C1CCCCc2c(Cl)cc3[nH]ncc3c2-c2ncc3c(nc(OC[C@@]45CCCN4C[C@H](F)C5)nc3c2F)N2CCC[C@H](C2)O1` [Example 36, (17R)-9-Chloro-30-fluoro-24-(((2R,7aS)-2-fluorotetrahydro-1H-pyrrolo[1,2-a]pyrrol-7a(5H)-yl)methoxy)-16-oxa-5,6,21,23,25,29-hexaazahexacyclo[24.3.1.1˜17,21˜.0˜2,10˜.0˜3,7˜.0˜22,27˜]hentriaconta-1(30),2,4,7,9,22,24,26,28-nonaen-15-one bis(2,2,2-trifluoroacetate)], for which the pIC50 in test [1] (Homo sapiens, ASPC1, 2 h) was 8.10; with AsPC-1 cells (Homo sapiens, ASPC1, 72 h) it was 6.95; in test [2], 9.00; in test [3], 8.52.
In the case of `Cc1cc2[nH]ncc2c2c1CCCOC(=O)CC1CCCN(C1)c1nc(OC[C@@]34CCCN3C[C@H](F)C4)nc3c(F)c-2ncc13` (stereo partly drawn) [Example 39], the pIC50 in test [1] (2 h) is 7.80; in the test with AsPC-1 cells it was 6.72; in test [2], 8.10; in test [3], 7.92.
For `Cc1cc2[nH]ncc2c2c1CCCOC(=O)C[C@@H]1CCCN(C1)c1nc(OC[C@@]34CCCN3C[C@H](F)C4)nc3c(F)c-2ncc13` [Example 40], the pIC50 in test [1] (Homo sapiens, ASPC1, 2 h) was 8.10; in the test on AsPC-1 cells (Homo sapiens, ASPC1, 72 h), 7.05; in test [2], 8.52; in test [3], 8.30.
For `O=C1CCCc2c(F)ccc3cc(O)cc(c23)-c2ncc3c(nc(OC[C@@]45CCCN4C[C@H](F)C5)nc3c2F)N2CCC[C@H](C2)O1` [Example 41, (15R)-22,31-Difluoro-8-(((2R,7aS)-2-fluorotetrahydro-1H-pyrrolo[1,2-a]pyrrol-7a(5H)-yl)methoxy)-27-hydroxy-16-oxa-3,7,9,11-tetraazahexacyclo[19.7.1.1˜2,6˜.1˜11,15˜.0˜5,10˜.0˜25,29˜]hentriaconta-1(28),2(31),3,5,7,9,21,23,25(29),26-decaen-17-one 2,2,2-trifluoroacetate salt] the same measures were 8.52, 7.33, 8.70 and 8.52.
For `O=C1CCCc2c(F)ccc3cc(O)cc(c23)-c2ncc3c(nc(OC[C@@]45CCCN4C[C@H](F)C5)nc3c2F)N2CCC[C@](CF)(C2)O1` [Example 42] the same measures were 7.42, 6.38, 8.70 and 8.40.
Regarding `Cc1cc2[nH]ncc2c2c1CCCCC(=O)N[C@@H]1CCCCN(C1)c1nc(OC[C@@]34CCCN3C[C@H](F)C4)nc3c(F)c-2ncc13` [Example 54, (26R)-32-fluoro-4-(((2R,7aS)-2-fluorotetrahydro-1H-pyrrolo[1,2-a]pyrrol-7a(5H)-yl)methoxy)-18-methyl-1,3,5,9,14,15,25-heptaazahexacyclo[24.4.1.1~6,10~.0~2,7~.0~11,19~.0~12,16~]dotriaconta-2,4,6,8,10(32),11,13,16,18-nonaen-24-one], the pIC50 was 6.87 in test [1] (Homo sapiens, ASPC1, 2 h); 5.79 in the test with AsPC-1 cells (Homo sapiens, ASPC1, 72 h); 8.52 in test [2]; 8.22 in test [3].
The matching figures for `C[C@@]12CCCN(C1)c1nc(OC[C@@]34CCCN3C[C@H](F)C4)nc3c(F)c(ncc13)-c1cccc3ccc(F)c(c13)CCOC(=O)N2` [Example 77, (15R)-22,31-difluoro-8-(((2R,7aS)-2-fluorotetrahydro-1H-pyrrolo[1,2-a]pyrrol-7a(5H)-yl)methoxy)-15-methyl-18-oxa-3,7,9,11,16-pentaazahexacyclo[19.7.1.1~2,6~.1~11,15~.0~5,10~.0~25,29~]hentriaconta-1(29),2(31),3,5,7,9,21,23,25,27-decaen-17-one]: 6.13, 5.67, 8.15 and 7.85.
As a reminder, the IC50 is the concentration needed to halve the response being measured. In the case of `O=C1C[C@H]2CN(CCO2)c2nc(OC[C@@]34CCCN3C[C@H](F)C4)nc3c(F)c(ncc23)-c2c(c(Cl)cc3[nH]ncc23)CCCO1` [Example 79, (17S)-9-chloro-30-fluoro-24-(((2R,7aS)-2-fluorotetrahydro-1H-pyrrolo[1,2-a]pyrrol-7a(5H)-yl)methoxy)-14,18-dioxa-5,6,21,23,25,29-hexaazahexacyclo[24.3.1.1~17,21~.0~2,10~.0~3,7~.0~22,27~]hentriaconta-1(30),2,4,7,9,22,24,26,28-nonaen-15-one], the pIC50 in test [1] (Homo sapiens, ASPC1, 2 h) was 8.40; in the test with AsPC-1 cells (Homo sapiens, ASPC1, 72 h), 7.22; in test [3], 8.40. For the same compound, the 50% inhibitory concentration (IC50) in test [2] amounted to 3 nM.
On to `Cc1cc2[nH]ncc2c2c1CCCOC(=O)O[C@H]1CN(CC[C@H]1C)c1nc(OC[C@@]34CCCN3C[C@H](F)C4)nc3c(F)c-2ncc13` [Example 94, (17R,18R)-30-fluoro-24-(((2R,7aS)-2-fluorotetrahydro-1H-pyrrolo[1,2-a]pyrrol-7a(5H)-yl)methoxy)-9,18-dimethyl-14,16-dioxa-5,6,21,23,25,29-hexaazahexacyclo[24.3.1.1~17,21~.0~2,10~.0~3,7~.0~22,27~]hentriaconta-1(30),2,4,7,9,22,24,26,28-nonaen-15-one], for which the pIC50 in test [1] (Homo sapiens, ASPC1, 2 h) was 6.65; in the test with AsPC-1 cells (Homo sapiens, ASPC1, 72 h), 6.00; in test [2], 8.22; in test [3], 8.00.
The matching figures for `Cc1cc2[nH]ncc2c2c1CCCC(=O)OCCC1CCCN(C1)c1nc(OC[C@@]34CCCN3C[C@H](F)C4)nc3c(F)c-2ncc13` (stereo partly drawn) [Example 105]: 6.61, 5.71, 8.10 and 7.85.
The matching figures for `Cc1cc2[nH]ncc2c2c1CCCC(=O)OC[C@@H]1CCCN(C1)c1nc(OC[C@@]34CCCN3C[C@H](F)C4)nc3c(F)c-2ncc13` [Example 106]: 7.54, 6.57, 9.00 and 8.40.
For `O=C1OCCC2CCc3cc4[nH]ncc4c(c32)-c2ncc3c(nc(OC[C@@]45CCCN4C[C@H](F)C5)nc3c2F)N2CCC[C@H](C2)O1` (stereo partly drawn) [Example 125] the same measures were 7.18, 6.39, 8.30 and 8.05.
On to `CN1C(=O)CC[C@@H]2C[C@@H]2c2c(Cl)cc3[nH]ncc3c2-c2ncc3c(nc(OC[C@@]45CCCN4C[C@H](F)C5)nc3c2F)N2CCC[C@@H]1C2` [Example 128, (11S,13R,18R)-9-Chloro-31-fluoro-25-(((2R,7aS)-2-fluorotetrahydro-1H-pyrrolo[1,2-a]pyrrol-7a(5H)-yl)methoxy)-17-methyl-5,6,17,22,24,26,30-heptaazaheptacyclo[25.3.1.1˜18,22˜.0˜2,10˜.0˜3,7˜.0˜11,13˜.0˜23,28˜]dotriaconta-1(31),2,4,7,9,23,25,27,29-nonaen-16-one bis (2,2,2-trifluoroacetate)], for which the pIC50 in test [1] (Homo sapiens, ASPC1, 2 h) is 6.61; in the test on AsPC-1 cells (Homo sapiens, ASPC1, 72 h), 5.90; in test [2], 7.34; in test [3], 7.17.
Regarding `Cc1cc2[nH]ncc2c2c1C/C=C/COC[C@@H]1CCCN(C1)c1nc(OC[C@@]34CCCN3C[C@H](F)C4)nc3c(F)c-2ncc13` [Example 130], the pIC50 in test [1] (Homo sapiens, ASPC1, 2 h) is 7.49; with AsPC-1 cells (Homo sapiens, ASPC1, 72 h) it was 6.64; in test [2], 8.70; in test [3], 8.30.
As for `Fc1c2ncc3c(nc(OC[C@@]45CCCN4C[C@H](F)C5)nc13)N1CCC[C@@H](COCCCCc3c(Cl)cc4[nH]ncc4c3-2)C1` [Example 138], the pIC50 in test [1] (Homo sapiens, ASPC1, 2 h) is 7.89; with AsPC-1 cells (Homo sapiens, ASPC1, 72 h), 5.30; in test [2] it was 8.70; in test [3], 8.40.
As to `Fc1c2ncc3c(nc(OC[C@@]45CCCN4C[C@H](F)C5)nc13)N1CCC[C@@H](CCOCCCc3c(Cl)cc4[nH]ncc4c3-2)C1` [Example 139], the pIC50 is 6.94 in test [1] (Homo sapiens, ASPC1, 2 h); 6.04 with AsPC-1 cells (Homo sapiens, ASPC1, 72 h); 8.52 in test [2]; 8.22 in test [3].
For `O=S1(=O)CCCCc2c(Cl)cc3[nH]ncc3c2-c2ncc3c(nc(OC[C@@]45CCCN4C[C@H](F)C5)nc3c2F)N2CCC[C@H](C2)C1` [Example 145] the same measures were 5.33, 5.30, 7.20 and 7.17.
For `CN1C(=O)CCCc2c(F)ccc3cccc(c23)-c2ncc3c(nc(OC[C@@]45CCCN4C[C@H](F)C5)nc3c2F)N2CCC[C@]1(C)C2` [Example 167, (15R)-22,31-difluoro-8-(((2R,7aS)-2-fluorotetrahydro-1H-pyrrolo[1,2-a]pyrrol-7a(5H)-yl)methoxy)-15,16-dimethyl-3,7,9,11,16-pentaazahexacyclo[19.7.1.1~2,6~.1~11,15~.0~5,10~.0~25,29~]hentriaconta-1(29),2(31),3,5,7,9,21,23,25,27-decaen-17-one] the same measures were 5.80, 5.30, 7.70 and 7.36.
